“And” between values parts separate entries of the source, which are not always exact repeats. Identical values can stand only once. Like-named read-outs stand apart in the source and are kept apart here.
What was measured:
[1] = system: E. coli strain MCM597; test: Carbon sources affecting isoprene production during growth on glucose (Biolog PM1 and PM2A plates); format: cell-based; conditions: 0.5% glucose, 0.2% yeast extract; normalized to control only fed glucose; p<0.1
[2] = system: E. coli strain MCM597; test: Carbon sources useful for the production of isoprene (Biolog PM1 plate); format: cell-based; conditions: 0.2% yeast extract, compound as carbon source; normalized to α-D-glucose
[3] = target: T1, Dxr from E. coli (Escherichia coli, UniProt P45568); test: Dxr inactivation by incubation with DMAPP and HDMAPP; format: biochemical; conditions: purified Dxr from E. coli
T1 construct: His tag (pET15b) (N); made in house; host or cells: E. coli BL21(λDE3)
Description: The purified protein, 5 uM, was incubated at several concentration of DMAPP or HMBPP (Echelon Bioscience, Salt Lake City, Utah) in buffer consisting of 100 mM Tris, 100 mM NaCl pH 8, 5 mM MgCl2, 0.2 mM NADPH, 0.2 mM DXP, and 250 nM DXR. D at 37° C. for two hour in a total volume of 50 uL. Dxr activity was measured periodically according to standard assay, see, e.g., Koppisch et al, Biochemistry, 41:236-43 (2002) with a 20-fold dilution of the inactivation reaction mixture. […] Where appropriate additional control activity assays were conducted in the presence of a 20-fold diluted concentration of inactivators (DMAPP or HMBPP).

[4] = system: E. coli strain MCM597; test: Nitrogen sources affecting isoprene production (Biolog PM3B plates); format: cell-based; conditions: 0.5% glucose as sole carbon source, no yeast extract; p<0.1
[5] = about 1 atmosphere and about 60° F.; cited from earlier work
[6] = system: REM A2—17 strain; test: Specific productivity of isoprene of strain REM A2—17 in the presence and absence of fosmidomycin (headspace assay); format: cell-based, E. coli; conditions: 2 mM fosmidomycin; for activity at 2000 µM: Escherichia coli, 0.75 h, read-out: fraction of isoprene produced during exposure to fosmidomycin relative to absence of the inhibitor (MVA-flux)
[7] = system: REM A2—17 strain; test: Accumulation of DXP and MVA pathway metabolites in REM A2—17 with and without fosmidomycin (LC-MS/MS); format: cell-based, E. coli; conditions: 2 mM fosmidomycin, 45 min. incubation
[8] = system: E. coli BL21 strain harboring the GI1.6-dxr locus; test: Isoprene production with fosmidomycin in the growth media, GI1.6-dxr strain; format: cell-based; conditions: 1 mM fosmidomycin in the growth media
[9] = system: dxr null E. coli BL21 strain; format: cell-based
[10] = Flammability limits of isoprene (computer simulation and experimental testing); format: physicochemical
Description: Thus, computer modeling and experimental testing were used to determine the flammability limits of isoprene (such as isoprene in the presence of O2, N2, CO2, or any combination of two or more of the foregoing gases) in order to ensure process safety. The flammability envelope is characterized by the lower flammability limit (LFL), the upper flammability limit (UFL), the limiting oxygen concentration (LOC), and the limiting temperature. For a system to be flammable, a minimum amount of fuel (such as isoprene) must be in the presence of a minimum amount of oxidant, typically oxygen. The LFL is the minimum amount of isoprene that must be present to sustain burning, while the UFL is the maximum amount of isoprene that can be present. Above this limit, the mixture is fuel rich and the fraction of oxygen is too low to have a flammable mixture. The LOC indicates the minimum fraction of oxygen that must also be present to have a flammable mixture. The limiting temperature is based on the flash point of isoprene and is that lowest temperature at which combustion of isoprene can propagate. These limits are specific to the concentration of isoprene, type and concentration of oxidant, inerts present in the system, temperature, and pressure of the system. […]

[11] = system: strains REM H8—12 and REM I7—11; format: cell-based, E. coli
[12] = approx. 45 minutes, unlabeled culture without tryptophan (FIG. 98)

T1 sequence (P45568 whole entry): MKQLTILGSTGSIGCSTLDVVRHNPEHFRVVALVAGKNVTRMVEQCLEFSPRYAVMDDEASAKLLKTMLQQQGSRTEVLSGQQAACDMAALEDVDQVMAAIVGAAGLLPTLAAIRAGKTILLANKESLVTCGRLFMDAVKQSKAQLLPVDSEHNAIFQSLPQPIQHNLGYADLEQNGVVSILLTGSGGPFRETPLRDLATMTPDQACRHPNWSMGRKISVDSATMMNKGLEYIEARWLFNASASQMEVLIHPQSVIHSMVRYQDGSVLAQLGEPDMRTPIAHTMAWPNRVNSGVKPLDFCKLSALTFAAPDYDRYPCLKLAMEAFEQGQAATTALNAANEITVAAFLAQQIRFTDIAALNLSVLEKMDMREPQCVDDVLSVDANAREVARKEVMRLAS

Row | Compound | specific productivity of isoprene [1] | specific isoprene production [4] | also measured
1 | CC(O)C(C)O (stereo not drawn) [2,3-butanediol] | increasing | – | –
2 | NCCO [2-aminoethanol] | increasing | – | –
3 | OC[C@H]1O[C@@H](O[C@H]2[C@H](O)[C@@H](O)[C@H](O)O[C@@H]2CO)[C@H](O)[C@@H](O)[C@@H]1O [D-cellobiose] | increasing | – | –
4 | O=C(CO)[C@@H](O)[C@H](O)[C@H](O)CO [D-fructose] | – | – | specific productivity of isoprene [2]: increasing
5 | O=C[C@H](O)[C@@H](O)[C@@H](O)[C@H](O)C(=O)O [D-galacturonic acid] | increasing | – | specific productivity of isoprene [2]: increasing
6 | O=C(O)[C@H](O)[C@@H](O)[C@H](O)[C@H](O)CO [D-gluconic acid] | increasing | – | –
7 | N[C@@H](C(=O)O)[C@@H](O)[C@H](O)[C@H](O)CO [D-glucosaminic acid] | increasing | – | –
8 | O=C[C@H](O)[C@@H](O)[C@H](O)[C@H](O)COP(=O)(O)O [D-glucose-6-phosphate] | – | – | specific productivity of isoprene [2]: increasing
9 | OC[C@@H](O)[C@@H](O)[C@H](O)[C@H](O)CO [D-mannitol] | – | – | specific productivity of isoprene [2]: increasing
10 | O=C[C@@H](O)[C@@H](O)[C@H](O)[C@H](O)CO [D-mannose] | increasing | – | –
11 | O=C(CO)[C@H](O)[C@H](O)[C@H](O)CO [D-psicose] | increasing | – | –
12 | OC[C@H]1O[C@H](O[C@H]2O[C@H](CO)[C@@H](O)[C@H](O)[C@H]2O)[C@H](O)[C@@H](O)[C@@H]1O [D-trehalose] | – | – | specific productivity of isoprene [2]: increasing
13 | C/C(=C\COP(=O)(O)OP(=O)(O)O)CO [HMBPP, 1-hydroxy-2-methyl-2-(E)-butenyl 4-diphosphate] | – | – | Dxr activity after incubation with the compound [3]: inactivated
14 | NC(=O)C[C@H](N)C(=O)O [L-asparagine] | – | increasing | –
15 | N[C@@H](CC(=O)O)C(=O)O [L-aspartic acid] | – | increasing | –
16 | O=C1O[C@H]([C@@H](O)CO)[C@@H](O)[C@@H]1O [L-galactonic acid-γ-lactone] | increasing | – | –
17 | N[C@@H](CCC(=O)O)C(=O)O [L-glutamic acid] | – | increasing | –
18 | O=C(O)C[C@H](O)C(=O)O [L-malic acid] | increasing | – | –
19 | CSCC[C@H](N)C(=O)O [L-methionine] | – | negatively affecting | –
20 | N[C@@H](Cc1ccccc1)C(=O)O [L-phenylalanine] | increasing | – | –
21 | N[C@@H](CO)C(=O)O [L-serine] | – | increasing | –

Row | Compound | specific productivity of isoprene [1] | specific isoprene production [4] | also measured
22 | C[C@@H](O)[C@H](N)C(=O)O [L-threonine] | – | increasing | –
23 | N[C@@H](Cc1c[nH]c2ccccc12)C(=O)O [L-tryptophan] | – | increasing | –
24 | N[C@@H](Cc1ccc(O)cc1)C(=O)O [L-tyrosine] | – | negatively affecting | –
25 | CC(=O)N[C@H]1C(O)O[C@H](CO)[C@@H](O)[C@@H]1O (stereo partly drawn) [N-acetyl-D-glucosamine] | – | – | specific productivity of isoprene [2]: increasing
26 | Nc1ncnc2nc[nH]c12 [adenine] | – | negatively affecting | –
27 | N [ammonia] | – | did not significantly change | –
28 | CCO [ethanol] | – | – | limiting oxygen concentration (LOC) [5]: about 8.7 vol %; lower flammability limit (LFL) [5]: about 3.3 vol %
29 | O=CN(O)CCCP(=O)(O)O [fosmidomycin] | – | – | decrease in isoprene production with fosmidomycin (DXP-flux) ([6]; 1-13C glucose culture with 50 uM tryptophan (FIG. 98)): 51%; decrease in isoprene production with fosmidomycin (DXP-flux) ([6]; 1-13C glucose culture without tryptophan): 42% and 43%; decrease in isoprene production with fosmidomycin (DXP pathway contribution) ([6]; 3-13C glucose): 43% and ~42%; decrease in isoprene production with fosmidomycin (DXP pathway contribution) [6, 12]: ~48%; fraction of isoprene produced during exposure to fosmidomycin relative to absence of the inhibitor (MVA pathway contribution) [6, 12]: roughly 52%; fraction of isoprene produced during exposure to fosmidomycin relative to absence of the inhibitor (MVA pathway contribution) ([6]; approx. 45 minutes, unlabeled glucose (FIG. 96)): roughly 59%; decrease in isoprene production with fosmidomycin (DXP pathway contribution) ([6]; approx. 45 minutes, unlabeled glucose (FIG. 96, 97)): 41%; fraction of isoprene produced during exposure to fosmidomycin relative to absence of the inhibitor (MVA pathway contribution) ([6]; approx. 1 hour, 3-13C glucose (FIG. 99)): roughly 58%; activity at 2000 µM ([6]; approx. 45 minutes, 1-13C glucose culture with 50 uM tryptophan (FIG. 98)): 49%; activity at 2000 µM ([6]; approx. 45 minutes, 1-13C glucose culture without tryptophan (FIG. 98)): 57%; DXP concentration [7]: significant increase; HDMAPP concentration [7]: decrease; concentration of MEP, CDP-ME and cMEPP [7]: drop; concentration of MVA [7]: did not change; decrease of the cumulative amount of IPP and DMAPP [7]: 55%; isoprene production [8]: undetectable level; isoprene production [9]: same level of isoprene production
30 | NC(=O)[C@@H](O)[C@@H](O)[C@H](O)[C@@H](O)C=O [glucuronamide] | increasing | – | –
31 | Nc1nc2c(ncn2[C@@H]2O[C@H](CO)[C@@H](O)[C@H]2O)c(=O)[nH]1 [guanosine] | – | increasing | –
32 | OC[C@H]1O[C@@H](n2cnc3c(O)ncnc32)[C@H](O)[C@@H]1O [inosine] | increasing | increasing | –
33 | C=CC(=C)C [isoprene, 2-methyl-1,3-butadiene] | – | – | limiting temperature [10]: about −54 °C; limiting oxygen concentration (LOC) ([10]; isoprene, O2, N2, and CO2 mixture at 40° C. and 1 atmosphere): 9.5 vol %
34 | C[C@@](O)(CCO)CC(=O)O [mevalonic acid, (R)-mevalonic acid] | – | – | isoprene specific productivity from mevalonate (m/z of 67) [11]: increased with increasing mevalonic acid concentration; specific productivity of isoprene from [U-13C]-glucose (m/z of 73) [11]: the same
35 | O=C(O)[C@@H](O)[C@H](O)[C@H](O)[C@@H](O)C(=O)O [mucic acid] | increasing | – | –
36 | O=[N+]([O-])O [nitrate] | – | did not significantly change | –
37 | O=NO [nitrite] | – | did not significantly change | –
38 | NCCc1ccccc1 [phenylethylamine] | increasing | – | –
39 | CCC(=O)O [propionic acid] | increasing | – | –
40 | OC[C@H]1O[C@@](CO)(O[C@H]2O[C@H](CO)[C@@H](O)[C@H](O)[C@H]2O)[C@@H](O)[C@@H]1O [sucrose] | increasing | – | –
41 | NC(N)=O [urea] | – | did not significantly change | –
42 | OC[C@H]1O[C@H](O)[C@H](O)[C@@H](O)[C@@H]1O [α-D-glucose] | – | – | specific productivity of isoprene [2]: increasing

From patent US8507235B2, “Isoprene production using the DXP and MVA pathway” (Danisco US Inc., priority 2009, dated 2013)
